Reference: patent US20220389500A1, “PURIFYING AND POLYMERIZING 3'-BLOCKED NUCLEOTIDES” (ILLUMINA, INC., priority 2021, published 2022)

What was measured:
Assay type in all cases: biochemical
[1] = system: 3′-OH nucleotides; test: Purification (polishing) of heated 3′-blocked nucleotides with Klenow polymerase and different templates, then 2×151 cycle sequencing on MINISEQ (FIG. 8); settings: Klenow polymerase, 30 minutes at 37° C., nucleotides heated 5 hours at 55° C.
Experimental: FIG. 8 is a plot of phasing and prephasing during polymerization of 3′-blocked nucleotides that were purified using different conditions. More specifically, an aqueous solution of 3′-blocked nucleotides blocked with azidomethyl groups was heated for 5 hours at 55° C. so as to simulate nucleotide stress conditions and convert a portion of the 3′-blocked nucleotides to 3′-OH nucleotides. The resulting aqueous mixture of 3′-blocked nucleotides and 3′-OH nucleotides was purified for 30 minutes at 37° C. in a manner such as described with reference to FIGS. 1A-1B and 3, using the Klenow polymerase and different conditions, e.g., different templates, and different concentrations of templates, such as described further below. The purified 3′-blocked nucleotides then were used in a sequencing reaction, using 2×151 cycle runs on the MINISEQ® sequencing-by-synthesis instrument (Ilumina, Inc., San Diego Calif.) using the PhiX library as templates. The purified nucleotides behaved similarly in the two sequencing reads (R1 and R2). The accumulated prephasing over 150 cycles of read 1 (R1 C150% prephasing weight) and the accumulated phasing over 150 cycles of read 1 (R1 C150% phasing weight) after 3′-blocked nucleotide polymerization was measured for the purified 3′-blocked nucleotides, as well as for heated and unpurified 3′-blocked nucleotides and for unheated 3′-blocked nucleotides.
The effect of concentration of a first example template was determined. More specifically, the next data points to the right (“50 nM”) correspond to polymerization of 3′-blocked nucleotides that had been heated as indicated above and were purified using 50 nM of a 20N template of sequence 5′-NNNNNNNNNNNNNNNNNNNNCGGCCATATAACTGGTAGCTT-3′ (SEQ ID NO: 5), whereN are degenerated bases, combined in equimolar amount with a primer oligonucleotide sequence AAGCTACCAGTTATATGGCCG (SEQ ID NO: 6). […] From a comparison of the data points corresponding to different concentrations of the 20N template, it may be understood that with increased concentration of 20N template, prephasing approached a similar prephasing as for the unheated (“std”) 3′-blocked nucleotides.
Different templates were used to determine their effect on phasing and prephasing. More specifically, the next data points to the right (“4N”) correspond to polymerization of 3′-blocked nucleotides that had been heated as indicated above and were purified using 200 nM of a 4N template of sequence 5′-NNN NCGGC CAT ATA ACT GGT AGCTT-3′ (SEQ ID NO: 7) where N are degenerated bases, combined in equimolar amount with primer oligonucleotide sequence AAGCTACCAGTTATATGGCCG (SEQ ID NO: 6). […] The next data points to the right (“6N”) correspond to polymerization of 3′-blocked nucleotides that had been heated as indicated above and were purified using 200 nM of a 6N template of sequence 5′-[…]-3′ (SEQ ID NO: 8), combined in equimolar amount with primer oligonucleotide sequence AAGCTACCAGTTATATGGCCG (SEQ ID NO: 6).
The next data points to the right correspond to polymerization of 3′-blocked nucleotides that had been heated as indicated above and were purified using 200 nM of a mixture of 4 hairpin templates, each template corresponding to one base, of respective sequences GGGGGGGGGGGGCGGCCATATAACTGGTCACTCCAGTTATATGGCCG (hairpin G) (SEQ ID NO: 9), TTTTTTTTTTTTCGGCCATAT AACTGG TCACTCCAGTTATATGGCCG (hairpin T) (SEQ ID NO: 10), CCCCCCCCCCCCCGGCCATAT AACTGG TCACTCCAGTTATATGGCCG (hairpin C) (SEQ ID NO: 11), AAAAAAAAAAAACGGCCATATAACTGGTCACTCCAGTTATATGGCCG (hairpin A) (SEQ ID NO: 12). The hairpin templates were added to the reaction at the same concentration to reach a final concentration of 200 nM of DNA. […]

[2] = system: 3′-OH nucleotides; test: Purification of heated 3′-blocked nucleotides with different polymerases and temperatures, then 2×26 cycle sequencing on MINISEQ (FIG. 9); settings: 30 minutes, hp template with 20 degenerated bases, nucleotides heated 5 hours at 55° C.
Experimental: FIG. 9 is a plot of phasing and prephasing during polymerization of 3′-blocked nucleotides that were purified to remove 3′-OH nucleotides using different polymerases and different temperatures. More specifically, similarly as for Example 1, an aqueous solution of 3′-blocked nucleotides blocked with azidomethyl groups was heated for 5 hours at 55° C. so as to convert a portion of the 3′-blocked nucleotides to 3′-OH nucleotides. The resulting aqueous mixture of 3′-blocked nucleotides and 3′-OH nucleotides was purified for 30 minutes in a manner such as described with reference to FIGS. 1A-1B and 3, using an hp oligomer template with 20 degenerated bases (meaning that at each position, one of the four bases could be incorporated; since this is random, each oligomer should have a different sequence) and different polymerases and different temperatures such as described further below. The purified 3′-blocked nucleotides then were polymerized using 2×26 cycle runs on the MINISEQ® sequencing-by-synthesis instrument (Illumina, Inc., San Diego Calif.) using the PhiX library as templates. The slope adjusted prephasing and phasing were measured for the purified 3′-blocked nucleotides, as well as for heated and unpurified 3′-blocked nucleotides and for unheated 3′-blocked nucleotides.
Different polymerases were used at different temperatures to determine their effect on phasing and prephasing. More specifically, the next data points to the right (“Vent polishing 60 C”) correspond to polymerization of 3′-blocked nucleotides that had been heated as indicated above and were purified using the Deep Vent polymerase at 60° C. […] From a comparison of performance of the different polymerases, it may be understood that using the Deep Vent polymerase at 60° C. provided similar phasing and prephasing as for the lower baseline “no stress” in which the 3′-blocked nucleotides were not heated. Additionally, it may be understood that using the Taq polymerase at the experimental temperatures provided even less prephasing than for the lower baseline “no stress” in which the 3′-blocked nucleotides were not heated. Accordingly, it may be understood that the Taq polymerase removed from solution not only the 3′-OH nucleotides that were generated using heating, but also at least some of the 3′-OH nucleotides that were present even without heating. Under the particular experimental conditions in this example, the Taq polymerase appeared to provide better performance than Deep Vent, and neither Deep Vent or Taq appeared to detrimentally influence phasing.

[3] = system: 3′-OH nucleotides; test: Purification with Taq polymerase at different temperatures and nucleotide concentrations, then 2×26 cycle sequencing on MISEQ (FIG. 11); settings: 30 minutes, 0.5 mM or 1 mM nucleotides, control about 0.1%
Experimental: FIG. 11 is a plot of prephasing during polymerization of 3′-blocked nucleotides that were purified to remove 3′-OH nucleotides using different temperatures and concentrations of 3′-blocked nucleotides. Similarly as for Example 1, an aqueous solution of 3′-blocked nucleotides blocked with azidomethyl groups was heated for 5 hours at 55° C. so as to convert a portion of the 3′-blocked nucleotides to 3′-OH nucleotides. The resulting aqueous mixture of 3′-blocked nucleotides and 3′-OH nucleotides was purified for 30 minutes in a manner such as described with reference to FIGS. 1A-1B and 3, using 10× of an hp oligomer template with 20 degenerated bases (NNNNNNNNNNNNNNNNNNNN CGGCCATATAACTGGTAGCTTTTTTAAGCTACC AGTT AT ATG GCC G (SEQ ID NO. 1)), 10× of the Taq polymerase and either 0.5 mM or 1 mM of the heated 3′-blocked nucleotides, at a variety of temperatures. The purified 3′-blocked nucleotides then were polymerized using 2×26 cycle runs on the MISEQ® sequencing-by-synthesis instrument (Illumina, Inc., San Diego Calif.) using the PhiX library as templates. The normalized prephasing was measured for the purified 3′-blocked nucleotides, as well as for heated and unpurified Y-blocked nucleotides and for unheated Y-blocked nucleotides. […]

## 5′-NNN NCGGC CAT ATA ACT GGT AGCTT-3′ (DNA NNNNCGGCCATATAACTGGTAGCTT; degenerate-base DNA template for purifying nucleotides, chemistry not given here) [4N template]
[1]; 200 nM template
  R1 C150 phasing weight: about 18.5%
  R1 C150 prephasing weight: about 21%

## 5′-NNNNNNNNNNNNNNNNNNNNCGGCCATATAACTGGTAGCTT-3′ [20N template]
[1]; 50 nM template
  R1 C150 phasing weight: about 12%
  R1 C150 prephasing weight: about 24%
[1]; 200 nM template
  R1 C150 phasing weight: about 18.5%
  R1 C150 prephasing weight: about 16.5%
[1]; 300 nM template
  R1 C150 phasing weight: about 19%
  R1 C150 prephasing weight: about 13%
[1]; 500 nM template
  R1 C150 phasing weight: about 23%
  R1 C150 prephasing weight: about 17%

## 5′-NNNNNNCGGCCATATAACTGGTAGCTT-3′ (degenerate-base DNA template, chemistry not given here) [6N template]
[1]; 200 nM template
  R1 C150 phasing weight: about 15%
  R1 C150 prephasing weight: about 17.5%

## Taq polymerase: Thermus aquaticus DNA polymerase I, thermostable polishing polymerase
[2]; purified at 37° C.
  normalized phasing: about 0.13%
  normalized prephasing: about 0.09%
[2]; purified at 45° C.
  normalized phasing: about 0.12%
  normalized prephasing: about 0.08%
[2]; purified at 60° C.
  normalized phasing: about 0.12%
  normalized prephasing: about 0.09%
[3]; purified at 53° C.
  normalized prephasing: significantly lower than the control
[3]; purified at 60° C.
  normalized prephasing: significantly lower than the control

B1: NNNNNNNNNNNNNNNNNNNN CGGCCATATAACTGGTAGCTTTTTTAAGCTACC AGTT AT ATG GCC G (nucleic acid)
DNA: NNNNNNNNNNNNNNNNNNNNCGGCCATATAACTGGTAGCTTTTTTAAGCTACCAGTTATATGGCCG
modifications: hairpin template with 20 degenerate bases, chemistry not given here
[1]; 200 nM template
  R1 C150 phasing weight: about 12%
  R1 C150 prephasing weight: about 16%
